Patent US8278453B2, “Quinolizidinone M1 receptor positive allosteric modulators” (Merck Sharp & Dohme Corp., priority 2008, dated 2012)

Biological target: T1, acetylcholine muscarinic M1 receptor (Homo sapiens, UniProt P11229)
T1 construct: expressed in transfected cells; host or cells: CHOnfat (CHO cells expressing NFAT), line CHOnfat/hM1
T1 sequence (P11229 1-460): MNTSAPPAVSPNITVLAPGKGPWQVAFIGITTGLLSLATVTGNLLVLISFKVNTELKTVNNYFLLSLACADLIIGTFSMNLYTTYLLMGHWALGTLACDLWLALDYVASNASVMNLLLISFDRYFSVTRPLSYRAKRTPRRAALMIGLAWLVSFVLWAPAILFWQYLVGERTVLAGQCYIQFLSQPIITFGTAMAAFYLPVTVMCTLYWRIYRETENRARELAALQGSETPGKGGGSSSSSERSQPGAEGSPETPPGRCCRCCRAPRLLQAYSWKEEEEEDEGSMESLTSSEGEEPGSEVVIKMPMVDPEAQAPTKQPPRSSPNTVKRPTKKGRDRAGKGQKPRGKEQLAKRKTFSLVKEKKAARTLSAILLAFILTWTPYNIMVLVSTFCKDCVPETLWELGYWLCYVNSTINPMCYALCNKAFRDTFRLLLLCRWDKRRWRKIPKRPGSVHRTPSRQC
Experiment: muscarinic M1 FLIPR intracellular calcium assay (positive allosteric modulation, EC20 acetylcholine)
Assay type: cell-based
Settings: inflection point from FLIPR values; CHOnfat/hM1 cells; 4 min preincubation, then EC20 acetylcholine (3 nM final); read-out: IP Value
Procedure: The assay studies the effect of one or several concentrations of test compounds on basal or acetylcholine-stimulated Ca^2+ levels using FLIPR.
Compounds are prepared and subjected to a preincubation period of 4 min. Thereafter, a single EC20 concentration of acetylcholine is added to each well (3 nM final). The intracellular Ca^2+ level of each sample is measured and compared to an acetylcholine control to determine any modulatory activity.
Cells: CHOnfat/hM1, hM2, hM3 or hM4 cells are plated 24 hr before the assay at a density of 18,000 cells/well (100 μL) in a 384 well plate. CHOnfat/hM1 and CHOnfat/hM3 Growth Medium: 90% DMEM (Hi Glucose); 10% HI FBS; 2 mM L-glutamine; 0.1 mM NEAA; Pen-Strep; and 1 mg/ml Geneticin, are added. For M2Gqi5CHOnfat and M4Gqi5CHOnfat cells, an additional 600 μg/ml hygromycin is added.
Equipment: 384 well plate, 120 μL addition plate; 96-well Whatman 2 ml Uniplate Incubator, 37° C., 5% CO2; Skatron EMBLA-384 Plate Washer; Multimek Pipetting System; Genesis Freedom 200 System; Mosquito System; Temo Nanolitre Pipetting System; and FLIPR^384 Fluorometric Imaging Plate Reader System are used.
Buffers. Assay Buffer: Hanks Balanced Salt Solution, with 20 mM Hepes, 2.5 mM Probenecid (Sigma P-8761) first dissolved in 1N aqueous NaOH, 1% Bovine Serum Albumin (Sigma A-9647). Dye Loading Buffer: Assay Buffer plus 1% Fetal Bovine Serum and Fluo-4AM/Pluronic Acid Mixture. 2 mM Fluo-4AM ester stock in DMSO (Molecular Probes F-14202) Concentration of 2 μM in buffer for a final concentration of 1 μM in Assay. 20% Pluronic Acid Solution stock, with a concentration of 0.04% in Buffer, 0.02% in Assay.
65 μl of 2 mM Fluo-4AM are mixed with 130 μL of 20% Pluronic Acid. The resulting solution and 650 μL FBS is added to the assay buffer for a total volume of 65 mL. Positive Controls: 4-Br-A23187: 10 mM in DMSO; final concentration 10 μM. […]
After 60 min, the cells are washed three times with 100 μL of buffer, leaving 30 μL of buffer in each well. […] A signal test to check background fluorescence and basal fluorescence signal is performed. […]

Row | Structure (SMILES) | EC50 [nM]
1 | O=C(O)c1cc(Cc2ccc(Cl)cc2)c2ccccn2c1=O [Example 3, 1-(4-Chlorobenzyl)-4-oxo-4H-quinolizine-3-carboxylic acid] | 201
2 | O=C(O)c1cc(Cc2ccc(-c3ccccc3)cc2)c2ccccn2c1=O [Example 4, 1-(Biphenyl-4-ylmethyl)-4-oxo-4H-quinolizine-3-carboxylic acid] | 110
3 | Cn1cc(-c2ccc(Cc3cc(C(=O)O)c(=O)n4ccccc34)nc2)cn1 [Example 5, 1-{[5-(1-Methyl-1H-pyrazol-4-yl)pyridin-2-yl]methyl}-4-oxo-4H-quinolizine-3-carboxylic acid] | 213
